Measurements reported in US20140366440A1, “METHOD FOR PRODUCING CLONE SEEDLINGS” (OKAYAMA PREFECTURE, priority 2009, published 2014).

Assays:
[1] = test system: E. globulus wild-type (tissue culture); assay: Rooting of tissue-culture shoots planted to supporter infiltrated with rooting medium containing oxidized glutathione; type: in vivo, Eucalyptus globulus; conditions: for Rooting rate (%): 27 test pieces; for Number of rooted shoots: of 27 test pieces
Description: A foliage (shoot) grown to have a length of 2 cm to 5 cm was cut from a multiple shoot induced from a wild-type Eucalyptus globulus (hereinafter, abbreviated simply as an “E. globulus”). Inducing the multiple shoot followed a method described in Japanese Patent Application Publication, Tokukaihei, No. 8-228621 A. Specifically, a tissue (terminal bud and axillary bud) was collected from E. globulus (wild type), and the tissue thus collected was subjected to surface disinfection by immersing the tissue for twenty minutes in an sodium hypochlorite aqueous solution containing an amount of available chlorine of 1%. Then, the tissue which had been subjected to the surface disinfection was washed by sterilized water and was planted to a solid medium (MS medium containing sucrose of […], BA of 0.2 mg/L, and gellan gum of […]), and its bud was opened. Within three and four weeks after the culturing of the foliage was started, the culturing of the foliage was subcultured in a medium having a composition identical with that described above. […] Note that the foliages from the multiple shoot was grown in a medium having the composition identical with that used for forming the multiple shoot under the condition identical with that used for forming the multiple shoot.
(§1) A base of the shoot thus obtained was planted to a foaming phenolic resin porous supporter (Manufactured by Smithers-Oasis Company; Product name: Oasis). […] The base of the shoot was cultured for two months in carbon dioxide gas of 1000 ppm at a temperature of 25° C. under irradiation of red light having photosynthesis photon flux density of 51.3 μmol/m^2/S and having a wavelength component of 650 nm to 670 nm to a wavelength component of 450 nm to 470 nm at a ratio of 8.2:1.8. The culturing was carried out with a culture container, which was a cube container (maximum size of about 10 cm to 11.5 cm in length×10 cm to 11.5 cm in width×10.0 cm in height) having a shape whose bulge was slightly protruded. […] Carbon dioxide gas outside the culture container was allowed to enter the culture container through this carbon dioxide gas permeable membrane covering the opening. Accordingly, carbon dioxide gas concentration inside the culture container was about 1000 ppm due to the permeation of the carbon dioxide gas through the film covering the opening of the culture container. The culture container was irradiated with red light by use of a light irradiation device (Product name: CCFL unit, maker's name: Nippon Medical& Chemical Instruments CO., LTD.). Further, humidity in the culture container is adjusted by sealing the culture container with Parafilm.
(§2) Nine shoots were planted per culture container. A rooting rate was calculated from the number of test pieces of the shoot and the number of shoots (the number of rooted shoots) which had been rooted after the foliage was cultured for two months.

[2] = test system: Mango (Mangifera Indica Linn. variety name: Irwin); assay: Rooting of mango cuttings in rooting medium containing oxidized glutathione; type: in vivo; conditions: one and half months
Description: A mango (Mangifera Indica Linn. variety name: Irwin) was used as a material of a cutting. Specifically, a cutting including one to three joints and one to five leaves was cut from a branch of a mother tree, and each leaf was partially cut off. Furthermore, the material was wounded by a cutter. The cutting was thus prepared.
The shoot thus obtained was washed with running water over night, and was dipped into an insecticide solution such as “Kotetsu”. Then the shoot had been planted to a supporter infiltrated with a four-diluted MS medium (Composition: ammonium nitrate of 412.5 mg/L, potassium nitrate of 475 mg/L, sodium dihydrogenphosphate of 42.52 mg/L, potassium iodide of 0.21 mg/L, etc. Note that a carbon source other than glutathione was not added to this medium.) to which the oxidized glutathione of 50 mg/L, STS (AgS4O6) of 5 μM serving as a silver ion source, ascorbic acid of 50 mg/L serving an antioxidant, and IBA of 10 mg/L serving as a plant hormone were added. In this case, natural soil such as sand and akadama soil; or a composite soil of vermiculite, perlite, peat moss, etc. was used as the supporter. […]
Ten to twenty shoots were planted per culture container. A rooting rate was calculated from the number of test pieces of the shoot and the number of shoots (the number of rooted shoots) which had been rooted after the foliage was cultured for one and half months.

E. globulus (Clone G) = assay: Rooting of shoots with wounded base, line whose rooting is extremely difficult; type: in vivo, Eucalyptus globulus; conditions: Example 20: 50 mg/L in medium
Experimental: as §1, §2

E. globulus (Clone H) = assay: as above; type: in vivo, Eucalyptus globulus; conditions: Example 21: 50 mg/L in medium
Experimental: as §1, §2

E. globulus (Clone I) = assay: as above; type: in vivo, Eucalyptus globulus; conditions: Example 22: 50 mg/L in medium
Experimental: as §1, §2

[3] = Example 2: 50 mg/L in medium, two months
[4] = Example 3: 75 mg/L in medium, two months

Substance: oxidized glutathione
- Rooting rate (%) ([1]; Example 1: 25 mg/L in medium, adding glutathione to rooting medium (with STS, ascorbic acid, IBA), cultured two months): 74.1%
- Number of rooted shoots ([1]; Example 1: 25 mg/L in medium, two months): 20
- Rooting rate (%) [1, 3]: 85.2%
- Number of rooted shoots [1, 3]: 23
- Rooting rate (%) [1, 4]: 51.9%
- Number of rooted shoots [1, 4]: 14
- Number of rooted shoots ([2]; Example 11: 50 mg/L in rooting medium, of 26 test pieces): 7
- Rooting rate (%) ([2]; Example 11: 50 mg/L, adding glutathione to rooting medium (with STS, ascorbic acid, IBA 10 mg/L), 26 test pieces): 26.9%
- Rooting rate (%) (E. globulus (Clone G); 18 test pieces): 33.3%
- Number of rooted shoots (E. globulus (Clone G); of 18 test pieces): 6
- Rooting rate (%) (E. globulus (Clone H); 5 test pieces): 40.0%
- Number of rooted shoots (E. globulus (Clone H); of 5 test pieces): 2
- Rooting rate (%) (E. globulus (Clone I); 5 test pieces): 20.0%
- Number of rooted shoots (E. globulus (Clone I); of 5 test pieces): 1
